Laboratory results taken from ChEMBL document CHEMBL1201862, “PubChem BioAssay data set” (2004).
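Values below derive from 48-hour exposures of cells grown in 96-well plates, with endpoints linearly interpolated between the two concentrations bracketing the appropriate inhibition level. GI50 marks 50% less growth.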 Activity calls are given as the source filed them. Cut-off read from the data, not from the text of the source: active = GI50 up to about 1.1 µM and inactive = higher.

Key:
Assay in all cases: NCI-60 cell line screen, 48 h
CAKI-1 = tested on: CAKI-1
HL-60 = tested on: HL-60
HOP-62 = tested on: HOP-62
IGROV-1 = tested on: IGROV-1
MDA-MB-435 = tested on: MDA-MB-435
Malme-3M = tested on: Malme-3M
NCI-H23 = tested on: NCI-H23
NCI/ADR-RES = tested on: NCI/ADR-RES
OVCAR-3 = tested on: OVCAR-3
OVCAR-5 = tested on: OVCAR-5
OVCAR-8 = tested on: OVCAR-8
RPMI-8226 = tested on: RPMI-8226
RXF 393 = tested on: RXF 393
SF-268 = tested on: SF-268
SK-OV-3 = tested on: SK-OV-3
SNB-19 = tested on: SNB-19
SNB-75 = tested on: SNB-75
SR = tested on: SR
SW-620 = tested on: SW-620
UO-31 = tested on: UO-31

Measured: GI50

CCC1([N+](=O)[O-])CC2C=CC1C2 (stereo not drawn)
inactive: CAKI-1 > 100 µM | HL-60 49.9 µM | HOP-62 > 100 µM | IGROV-1 > 100 µM | MDA-MB-435 > 100 µM | Malme-3M > 100 µM | NCI-H23 > 100 µM | NCI/ADR-RES > 100 µM | OVCAR-3 > 100 µM | OVCAR-5 > 100 µM | OVCAR-8 > 100 µM | RPMI-8226 > 100 µM | RXF 393 > 100 µM | SF-268 > 100 µM | SK-OV-3 > 100 µM | SNB-19 > 100 µM | SNB-75 > 100 µM | SR > 100 µM | SW-620 > 100 µM | UO-31 > 100 µM

O=C(NCc1ccccc1)c1cc2ccccc2o/c1=N\c1ccccc1F
inactive: CAKI-1 14 µM | HL-60 > 100 µM | HOP-62 15.6 µM | IGROV-1 24 µM | MDA-MB-435 26.3 µM | Malme-3M 25.2 µM | NCI-H23 21.5 µM | NCI/ADR-RES 46.7 µM | OVCAR-3 46 µM | OVCAR-5 43.4 µM | OVCAR-8 14.3 µM | RPMI-8226 > 100 µM | RXF 393 21.5 µM | SF-268 30.8 µM | SK-OV-3 16.5 µM | SNB-19 25.6 µM | SNB-75 20 µM | SR 32.7 µM | SW-620 26.1 µM | UO-31 8.39 µM

O=C(NCCCNCCNC(=O)c1cc(-c2ccccc2)nc2ccccc12)c1cc(-c2ccccc2)nc2ccccc12
inactive: CAKI-1 2.26 µM | HL-60 1.59 µM | HOP-62 1.69 µM | IGROV-1 1.95 µM | MDA-MB-435 1.72 µM | Malme-3M 1.88 µM | NCI/ADR-RES 2.05 µM | OVCAR-3 1.97 µM | OVCAR-8 1.77 µM | RPMI-8226 3.25 µM | RXF 393 2 µM | SF-268 2.1 µM | SK-OV-3 3.27 µM | SNB-19 1.87 µM | SNB-75 1.51 µM | SR 2.75 µM | SW-620 1.65 µM | UO-31 1.86 µM

Cc1coc2c1C(OC(=O)C(C)C)C1(C)C(C)CCC(O)C1C2=O (stereo not drawn)
inactive: CAKI-1 > 100 µM | HL-60 46 µM | HOP-62 > 100 µM | IGROV-1 > 100 µM | MDA-MB-435 > 100 µM | Malme-3M > 100 µM | NCI-H23 > 100 µM | NCI/ADR-RES > 100 µM | OVCAR-3 > 100 µM | OVCAR-5 > 100 µM | OVCAR-8 > 100 µM | RPMI-8226 89.5 µM | RXF 393 > 100 µM | SF-268 > 100 µM | SK-OV-3 > 100 µM | SNB-75 > 100 µM | SR 51.2 µM | SW-620 > 100 µM | UO-31 50.2 µM

Cc1cccc(NC(=S)Nc2ccc(Cl)cc2)n1
inactive: CAKI-1 > 100 µM | HL-60 > 100 µM | HOP-62 > 100 µM | IGROV-1 > 100 µM | MDA-MB-435 > 100 µM | NCI-H23 > 100 µM | NCI/ADR-RES > 100 µM | OVCAR-8 > 100 µM | RPMI-8226 > 100 µM | RXF 393 > 100 µM | SF-268 > 100 µM | SK-OV-3 > 100 µM | SNB-19 > 100 µM | SNB-75 > 100 µM | SR > 100 µM | SW-620 > 100 µM | UO-31 > 100 µM

CN1CN(c2ccccc2)C2(CCN(CCc3csc4ccccc34)CC2)C1=O
inactive: CAKI-1 11.2 µM | HL-60 9.38 µM | HOP-62 12.2 µM | IGROV-1 21.7 µM | MDA-MB-435 14.4 µM | Malme-3M 15 µM | NCI-H23 17.4 µM | NCI/ADR-RES 13.8 µM | OVCAR-3 12.1 µM | OVCAR-5 11.9 µM | OVCAR-8 21.4 µM | RPMI-8226 6.84 µM | RXF 393 12.6 µM | SF-268 28.8 µM | SK-OV-3 25.9 µM | SNB-19 20.2 µM | SNB-75 17.3 µM | SR 11.7 µM | SW-620 16.9 µM | UO-31 1.8 µM

C=CCc1cccc2cc(C(=O)NCc3ccccc3)c(=N)oc12
inactive: CAKI-1 37 µM | HL-60 25.3 µM | HOP-62 38.5 µM | IGROV-1 24.9 µM | MDA-MB-435 25.8 µM | Malme-3M 19.4 µM | NCI-H23 31.9 µM | NCI/ADR-RES 34.2 µM | OVCAR-3 20.7 µM | OVCAR-5 54 µM | OVCAR-8 43.9 µM | RPMI-8226 79.8 µM | RXF 393 46.3 µM | SF-268 36.1 µM | SK-OV-3 46.2 µM | SNB-19 29.9 µM | SNB-75 31.3 µM | SR > 100 µM | SW-620 49.4 µM
